Read-outs that look alike come from different tables or passages of the source.
How the values were obtained:
MCF-7 cells = assay: MTT cytotoxicity assay, MCF-7; format: cell-based, human; conditions: MCF-7, 72 h exposure, MTT; read-out: IC50 (median growth inhibitory concentration)
Experimental: (§1) Cisplatin (CDDP) and oxaliplatin (OXP) were dissolved just before the experiment in a 0.9% NaCl solution.
(§2) Human prostate adenocarcinoma (PC3) cells were obtained from European Collection of Cell Cultures (ECACC, Salisbury, UK). Human ovarian cancer cell lines A2780 and its cisplatin resistant variant, A2780cisR, were kindly provided by Prof.
(§3) Triplicate cultures were established for each treatment.

BxPC3 cells = assay: MTT cytotoxicity assay, BxPC3; format: cell-based, human; conditions: BxPC3, 72 h exposure, MTT; read-out: IC50 (median growth inhibitory concentration)
PC3 cells = assay: MTT cytotoxicity assay, PC3; format: cell-based, human; conditions: PC3, 72 h exposure, read-out: IC50 (median growth inhibitory concentration)
Experimental: as §1, §2, §3

A549 cells = assay: MTT cytotoxicity assay, A549; format: cell-based, human; conditions: A549, 72 h exposure, MTT; read-out: IC50 (median growth inhibitory concentration)
Experimental: as §1, §2, §3

A2780cisR cells = assay: MTT cytotoxicity assay, A2780cisR (cisplatin resistant); format: cell-based, human; conditions: for IC50: A2780cisR, 72 h exposure, MTT, read-out: IC50 (median growth inhibitory concentration)
Experimental: (§4) Platinum(IV) complexes were dissolved in DMSO to stock solutions of 1 mg/mL just before the experiment, and a calculated amount of drug solution was added to the cell growth medium to a final solvent concentration of 0.5%, which had no discernible effect on cell killing. Cisplatin (CDDP) and oxaliplatin (OXP) were dissolved just before the experiment in a 0.9% NaCl solution.
as §2
(§5) Cancer Res. 1988, 48, 589-601]. […] Triplicate cultures were established for each treatment.

A498 cells = assay: MTT cytotoxicity assay, A498; format: cell-based, human; conditions: A498, 72 h exposure, read-out: IC50 (median growth inhibitory concentration)
Experimental: as §4, §2, §5

A2780 cells = assay: MTT cytotoxicity assay, A2780; format: cell-based, human; conditions: A2780, 72 h exposure, MTT; read-out: IC50 (median growth inhibitory concentration)
Experimental: as §4, §2, §5

HCT-15 cells = assay: MTT cytotoxicity assay, HCT-15; format: cell-based, human
Experimental: (§6) Cisplatin (CDDP) and oxaliplatin (OXP) were dissolved just before the experiment in a 0.9% NaCl solution. […]
as §5
(§7) MTT assay. […] Triplicate cultures were established for each treatment.
(§8) The two dimers, 3a and 3b, as well as compounds 1a and 2a were screened against six human cancer cell lines representative of lung (H157), colon (HCT-15), cervical (A431), ovarian (2008) and pancreatic (PSN1) cancers, along with melanoma (A375). Cytotoxicity was evaluated by means of the MTT test after 72 h of treatment and the in vitro antitumor potential of newly synthesized derivatives was compared to that of the reference metallo-drugs CDDP and OXP.

A375 cells = assay: MTT cytotoxicity assay, A375; format: cell-based, human
Experimental: as §6, §5, §7, §8

[1] = octanol/water partition, shake-flask method; format: physicochemical
Experimental: To quantify the hydrophobicity of the platinum complexes, partition coefficients (log P) values for octanol/water partition were measured using the shake-flask method.

nine cancer cell lines = assay: MTT cytotoxicity, over the nine cancer cell lines; conditions: for IC50: read-out: average IC50 values for the nine cancer cell lines, mean over nine cell lines, 72 h MTT
BxPC3 spheroids = assay: 3D spheroid APH assay, BxPC3; format: cell-based, human; conditions: 72 h, APH test
Description: (§9) Acid phosphatase (APH) assay. A modified APH assay, which is based on quantification of cytosolic acid phosphatase activity, was used for determining cell viability in spheroids. […] Triplicate cultures were established for each treatment. […] Evaluation was based on means from at least four independent experiments.
(§10) In order to improve the predictive capacity of the in vitro assays, we tested the activity in three three-dimensional (3D) cell cultures; human colon cancer cells, HCT-15, and human pancreatic cancer cells, KRAS wild type BxPC3 cells KRAS mutated PSN-1 cells. The cancer spheroids were treated with 3a and 3b for 72 h and the cell viability was assessed by means of the APH assay (Table 6). For comparison purposes, the cytotoxicities of CDDP and OXP were evaluated under the same experimental conditions.

[2] = tested on: Histone deacetylase (HDAC); assay: Histone deacetylase assay (Fluor-de-Lys) in MCF-7 cells; format: cell-based, human; conditions: MCF-7, 24 h, IC50 concentrations
Experimental: Histone deacetylase activity was determined using Fluor-de-Lys® HDAC fluorometric activity assay kit (Enzo Life Sciences International, Inc., Plymount Meeting, Pa., U.S.A.). […] Fluorescence was measured using a Fluoroskan Ascent FL (Labsystem, Finland) plate reader, with excitation at 360 nm and emission at 460 nm. For comparison purpose, the HDAC activity was also measured in nuclear extracts of MCF-7-treated cells by means of the same fluorometric activity assay kit. In this latter case, MCF-7 nuclear extracts were obtained as follow: cell pellets were re-suspended in lysis buffer [Tris.HCl (10 mM, pH 8.0), KCl (60 mM), EDTA (1.2 mM), DTT (1 mM), PMSF (0.05 mM), NP-40 (0.05%)] and kept on ice for 10 min. Subsequently, samples were centrifuged at 1000 g and re-suspended in the nuclear extraction buffer [Tris.HCl (20 mM, (pH 8.0), NaCl (420 mM), MgCl2 (0.7 mM), EDTA (0.25 mM), glycerol (25%)] for 30 min at 4° C., and then centrifuged at 15000 g for 15 min at 4° C.
The complexes described here were specifically designed to release either VPA of PhB inside the cells in the hope that they will inhibit HDAC activity paving the way for more efficient DNA platination. Thus, in addition to measuring the levels of DNA platination, we also measured the ability of these pro-drugs to inhibit HDAC activity in cells. […] For comparison purposes, the HDAC inhibitory effect determined by tested complexes was also assayed in isolated nuclei of MCF-7 treated cells (FIG. 3B).
The HDAC activity was determined by the Fluor de Lys® Fluorescent Cellular Activity Assay (Enzo Life Sciences).
Also, MCF-7 cells were incubated for 24 h with increasing concentrations of compounds I-VIII and their HDAC activity was determined. The IC50 values for the inhibition of HDAC activity in the cells are depicted in FIG. 3C.

PSN1 cells = assay: MTT cytotoxicity assay, PSN1; format: cell-based, human; conditions: PSN1, 72 h, MTT
Experimental: as §7, §8

HCT-15 spheroids = assay: 3D spheroid APH assay, HCT-15; format: cell-based, human; conditions: HCT-15 spheroids, 72 h, APH test
Description: as §9, §10

A431 cells = assay: MTT cytotoxicity assay, A431; format: cell-based, human; conditions: A431, 72 h
Experimental: as §7, §8

PSN-1 spheroids = assay: 3D spheroid APH assay, PSN-1; format: cell-based, human; conditions: PSN-1 spheroids, 72 h, APH test
Description: as §9, §10

2008 cells = assay: MTT cytotoxicity assay, 2008; format: cell-based, human; conditions: 2008, 72 h, MTT
Experimental: as §7, §8

H157 cells = assay: MTT cytotoxicity assay, H157; format: cell-based, human; conditions: H157, 72 h
Experimental: as §7, §8

[3] = tested on: human embryonic kidney HEK293 cells; assay: MTT cytotoxicity against non-tumor cells; format: cell-based
Experimental: as §7
The cytotoxic activity of derivatives 3a and 3b was also evaluated against non-tumor cells, namely human embryonic kidney HEK293 cells (Table 7). Both compounds 3a and 3b were more cytotoxic than CDDP.

[4] = HCT-15, 72 h exposure, MTT (Table 1), read-out: IC50 (median growth inhibitory concentration)
[5] = A375, 72 h exposure, MTT (Table 1), read-out: IC50 (median growth inhibitory concentration)
[6] = HCT-15, 72 h, MTT (Table 5), read-out: IC50 (μM) ± S.D.
[7] = A375, 72 h, MTT (Table 5), read-out: IC50 (μM) ± S.D.

Structure (SMILES) | IC50 (MCF-7 cells) [µM] | IC50 (BxPC3 cells) [µM] | IC50 (PC3 cells) [µM] | IC50 (A549 cells) [µM] | IC50 (A2780cisR cells) [nM] | IC50 (A498 cells) [µM] | IC50 (A2780 cells) [nM] | IC50 (HCT-15 cells; [4]) [µM] | IC50 (A375 cells; [5]) [µM] | IC50 (nine cancer cell lines) [µM] | IC50 (BxPC3 spheroids) [µM] | IC50 (PSN1 cells) [µM] | IC50 (HCT-15 spheroids) [µM] | IC50 (A431 cells) [µM] | IC50 (PSN-1 spheroids) [µM] | IC50 (HCT-15 cells; [6]) [µM] | IC50 (A375 cells; [7]) [µM] | IC50 (2008 cells) [µM] | IC50 (H157 cells) [µM] | other results
CCCC(CCC)C(=O)[O][Pt]([NH2])([NH2])([Cl])([Cl])[O]C(C)=O [II, Pt(NH3)2Cl2(C2H3O2)(C8H15O2)]] | 5.74 ± 1.1 | 3.54 ± 0.66 | 7.32 ± 1.24 | 8.36 ± 1.14 | 1620 ± 300 | 4.21 ± 0.95 | 1020 ± 600 | 6.36 ± 1.03 | 2.17 ± 0.53 | 4.48 | – | – | – | – | – | – | – | – | – | resistance factor (A2780cisR cells; ratio IC50 resistant (A2780cisR) / sensitive (A2780) cells): 1.6; Log P [1]: 0.17 ± 0.02; fold reduction in potency compared with ctc-[Pt(NH3)2(VPA)2Cl2] (nine cancer cell lines; range over cell lines): 1.7-7.9 fold
O=C1[O][Pt]2([NH][C@@H]3CCCC[C@H]3[NH]2)[O]C1=O [OXP, oxaliplatin, reference compound] | 3.36 ± 0.2 | 4.15 ± 0.93 | 5.24 ± 0.86 | 1.46 ± 0.31 | 4200 ± 1600 | 7.94 ± 1.04 | 520 ± 270 | 1.15 ± 0.43 | 6.3 ± 1.11 | 4.9 | 75.2 ± 6.91 | 8.25 ± 3.42 | 36.5 ± 3.12 | 3.06 ± 0.88 | 59.7 ± 8.52 | 1.15 ± 0.43 | 6.3 ± 2.01 | 1.53 ± 0.88 | 5.99 ± 1.85 | effect on HDAC activity (in words) [2]: not effective in modifying HDAC activity
Cc1c(C)c2c3c4c1=CC=C[N]4[Pt+2][N]3C=CC=2.N[C@H]1CCCC[C@@H]1N [[Pt(DACH)(56Phen)], reference compound] | – | – | – | – | – | – | – | – | – | – | 100 ± 12.1 | 0.25 ± 0.08 | 60.2 ± 2.92 | 0.28 ± 0.08 | 55.5 ± 9.75 | 0.69 ± 0.11 | 1.12 ± 0.42 | 0.74 ± 0.12 | 0.16 ± 0.01 | IC50 ([3]; HEK293 non-tumor cells, 72 h, MTT): 1.12 ± 0.87 µM; SI (selectivity index) ([3]; ratio between average IC50 of non-tumor cells and IC50 of malignant cells): 0.9
